Test results published in patent US12077503B2, “Substituted cyclic amides and their use as herbicides” (FMC CORPORATION, priority 2015, dated 2024).
Like-named read-outs stand apart in the source and are kept apart here.

Columns and labels:
Assay type in all cases: in vivo
[1] = tested on: pigweed (Amaranthus retroflexus); test: Test A preemergence; conditions: Amaranthus retroflexus, pre-emergence, 240 h; for pest or weed control at 125 g/ha: 125 g ai/ha; for pest or weed control at 500 g/ha: 500 g ai/ha
rice (Oryra sativa) = test: Test B flooded paddy test; conditions: Oryza sativa, Flood, 250 g ai/ha; scale of 0 to 100 where 0 is no effect and 100 is complete control; read-out: Rice plant response rating
Outline: (§1)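 2-leaf plants; pots flooded 3 cm over soil; cpd added to paddy water; depth held; greenhouse 13–15 d; visual rating vs controls, 0 = no effect, 100 = complete control.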

[2] = tested on: ducksalad (Heteranthera limosa); test: Test B flooded paddy test; conditions: Heteranthera limosa, Flood, 250 g ai/ha; scale of 0 to 100 where 0 is no effect and 100 is complete control; read-out: Ducksalad plant response rating
Outline: as §1

[3] = tested on: barnyardgrass (Echinochloa crus-galli); test: Test B flooded paddy test; conditions: Echinochloa crus-galli, Flood, 250 g ai/ha; scale of 0 to 100 where 0 is no effect and 100 is complete control; read-out: Barnyardgrass plant response rating
Outline: as §1

[4] = tested on: sedge, umbrella (small-flower umbrella sedge, Cyperus difformis); test: Test B flooded paddy test; conditions: Cyperus difformis, Flood, 250 g ai/ha; scale of 0 to 100 where 0 is no effect and 100 is complete control; read-out: Sedge, Umbrella plant response rating
Outline: as §1

Kochia (Kochia scoparia) = test: Test A postemergence; conditions: Bassia scoparia, post-emergence, 240 h, 125 g ai/ha
Outline: (§2)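 Greenhouse, ~10 d after spray; visual injury vs untreated controls, 0 = no effect, 100 = complete control. Preemergence: directed soil spray over planted seeds. Postemergence: plants 2–10 cm, 1–2 leaf stage. Loam/sand blend. Compound in non-phytotoxic solvent with surfactant.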

[5] = tested on: Galium (catchweed bedstraw, Galium aparine); test: Test A postemergence; conditions: Galium, post-emergence, 240 h, 125 g ai/ha
Outline: as §2

[6] = tested on: pigweed (Amaranthus retroflexus); test: Test A postemergence; conditions: Amaranthus retroflexus, post-emergence, 240 h, 125 g ai/ha
Outline: as §2

[7] = tested on: giant foxtail (Setaria faberii); test: Test A postemergence; conditions: Setaria faberi, post-emergence, 240 h, 125 g ai/ha
Outline: as §2

corn (Zea mays) = test: Test A postemergence; conditions: Zea mays, post-emergence, 240 h, 125 g ai/ha; for plant injury at 125 g/ha: postemergence, visual injury rating after approximately 10 d, read-out: Corn plant response rating (0 to 100 scale, 0 no effect, 100 complete control)
Outline: as §2

[8] = tested on: blackgrass (Alopecurus myosuroides); test: Test A postemergence; conditions: Alopecurus myosuroides, post-emergence, 240 h, 125 g ai/ha
Outline: as §2

[9] = tested on: barnyardgrass (Echinochloa crus-galli); test: Test A postemergence; conditions: Echinochloa crus-galli, post-emergence, 240 h, 125 g ai/ha
Outline: as §2

[10] = tested on: wheat (Triticum aestivum); test: Test A postemergence; conditions: Triticum aestivum, post-emergence, 240 h, 125 g ai/ha
Outline: as §2

[11] = tested on: ragweed (common ragweed, Ambrosia elatior); test: Test A postemergence; conditions: Ambrosia artemisiifolia, post-emergence, 240 h, 125 g ai/ha
Outline: as §2

[12] = tested on: ryegrass, Italian (Italian ryegrass, Lolium multiflorum); test: Test A postemergence; conditions: Lolium multiflorum, post-emergence, 240 h, 125 g ai/ha
Outline: as §2

[13] = preemergence, 0 to 100 scale where 0 is no effect and 100 is complete control, read-out: Pigweed plant response rating
[14] = Preemergence, visual injury vs untreated controls after approximately 10 d, read-out: Pigweed plant response rating (0 to 100 scale where 0 is no effect and 100 is complete control)
[15] = postemergence, visual injury rating after approximately 10 d, read-out: Kochia plant response rating (0 to 100 scale, 0 no effect, 100 complete control)
[16] = postemergence, visual injury rating after approximately 10 d, read-out: Galium plant response rating (0 to 100 scale, 0 no effect, 100 complete control)
[17] = postemergence, visual injury rating after approximately 10 d, read-out: Pigweed plant response rating (0 to 100 scale, 0 no effect, 100 complete control)
[18] = postemergence, visual injury rating after approximately 10 d, read-out: Foxtail, Giant plant response rating (0 to 100 scale, 0 no effect, 100 complete control)
[19] = postemergence, visual injury rating after approximately 10 d, read-out: Blackgrass plant response rating (0 to 100 scale, 0 no effect, 100 complete control)
[20] = postemergence, visual injury rating after approximately 10 d, read-out: Barnyardgrass plant response rating (0 to 100 scale, 0 no effect, 100 complete control)
[21] = postemergence, visual injury rating after approximately 10 d, read-out: Wheat plant response rating (0 to 100 scale, 0 no effect, 100 complete control)
[22] = postemergence, visual injury rating after approximately 10 d, read-out: Ragweed plant response rating (0 to 100 scale, 0 no effect, 100 complete control)
[23] = postemergence, visual injury rating after approximately 10 d, read-out: Ryegrass, Italian plant response rating (0 to 100 scale, 0 no effect, 100 complete control)

Compound	pest or weed control at 250 g/ha (rice (Oryra sativa)) [%]	pest or weed control at 250 g/ha [2] [%]	pest or weed control at 250 g/ha [3] [%]	pest or weed control at 250 g/ha [4] [%]	pest or weed control at 125 g/ha [1, 13] [%]	pest or weed control at 500 g/ha [1, 14] [%]	pest or weed control at 125 g/ha (Kochia (Kochia scoparia); [15]) [%]	pest or weed control at 125 g/ha [5, 16] [%]	pest or weed control at 125 g/ha [6, 17] [%]	pest or weed control at 125 g/ha [7, 18] [%]	plant injury at 125 g/ha (corn (Zea mays)) [%]	pest or weed control at 125 g/ha [8, 19] [%]	pest or weed control at 125 g/ha [9, 20] [%]	plant injury at 125 g/ha [10, 21] [%]	pest or weed control at 125 g/ha [11, 22] [%]	pest or weed control at 125 g/ha [12, 23] [%]	further results
Cc1cc([C@H]2CN(C)C(=O)[C@@H]2C(=O)Nc2ccccc2S(C)(=O)=O)ccc1Cl [Compound 944]	0	75	40	0	–	–	–	–	–	–	–	–	–	–	–	–	pest or weed control at 125 g/ha ([1]; Preemergence, visual injury rating after approximately 10 d, read-out: Pigweed plant response rating (0 to 100 scale, 0 is no effect, 100 is complete control)): 0%; pest or weed control at 500 g/ha ([1]; preemergence, visual injury rating about 10 d after treatment, 0 to 100 scale (0 no effect, 100 complete control), read-out: Pigweed plant response rating): 20%; pest or weed control at 125 g/ha (Kochia (Kochia scoparia); Postemergence, visual injury after approximately 10 d, 0 to 100 scale where 0 is no effect and 100 is complete control, read-out: Plant response rating, Kochia): 0%; pest or weed control at 125 g/ha ([5]; Postemergence, visual injury after approximately 10 d, 0 to 100 scale where 0 is no effect and 100 is complete control, read-out: Plant response rating, Galium): 20%; pest or weed control at 125 g/ha ([6]; Postemergence, visual injury after approximately 10 d, 0 to 100 scale where 0 is no effect and 100 is complete control, read-out: Plant response rating, Pigweed): 30%; pest or weed control at 125 g/ha ([7]; Postemergence, visual injury after approximately 10 d, 0 to 100 scale where 0 is no effect and 100 is complete control, read-out: Plant response rating, Foxtail, Giant): 90%; Corn plant response rating (crop injury, 0 = no effect, 100 = complete kill) at 125 g/ha (corn (Zea mays); Postemergence, visual injury after approximately 10 d, 0 to 100 scale where 0 is no effect and 100 is complete control): 30%; pest or weed control at 125 g/ha ([8]; Postemergence, visual injury after approximately 10 d, 0 to 100 scale where 0 is no effect and 100 is complete control, read-out: Plant response rating, Blackgrass): 60%; pest or weed control at 125 g/ha ([9]; Postemergence, visual injury after approximately 10 d, 0 to 100 scale where 0 is no effect and 100 is complete control, read-out: Plant response rating, Barnyardgrass): 80%; plant injury at 125 g/ha ([10]; Postemergence, visual injury after approximately 10 d, 0 to 100 scale where 0 is no effect and 100 is complete control, read-out: Plant response rating, Wheat): 40%; pest or weed control at 125 g/ha ([11]; Postemergence, visual injury after approximately 10 d, 0 to 100 scale where 0 is no effect and 100 is complete control, read-out: Plant response rating, Ragweed): 40%; pest or weed control at 125 g/ha ([12]; Postemergence, visual injury after approximately 10 d, 0 to 100 scale where 0 is no effect and 100 is complete control, read-out: Plant response rating, Ryegrass, Italian): 30%
Cc1c(F)ccc([C@H]2CNC(=O)[C@@H]2C(=O)Nc2ccccc2S(C)(=O)=O)c1F [Compound 832]	15	100	0	0	0	30	20	50	0	0	0	0	70	0	20	20	–
Cc1c(F)ccc([C@H]2CN(C)C(=O)[C@@H]2C(=O)Nc2cccc(F)c2F)c1F [Compound 834]	0	65	60	0	0	30	40	60	20	90	40	60	90	30	0	60	–
